# Where two headings read alike, the source gives them in different places.
# How the values were obtained:
# [1] = target: T1, L-amino acid oxidase from Rhodococcus opacus (Rhodococcus opacus, UniProt Q8VPD4); test: Substrate spectrum and stereospecificity of L-amino acid oxidase; type: biochemical; conditions: relative to 10 mM L-alanine
# T1 construct: made in house; host or cells: Rhodococcus opacus DSM 43250, the natural producer; purified from crude cell extract, not recombinant
# Method: The transformation of a large number of natural and non-natural amino acids was investigated. The following test batch (1 mL) was used for this purpose: 10 mM enantiomer-pure amino acid (or 20 mM D,L-amino acid); 0.2 M TEA-HCl buffer, pH 7.6; 0.2 mg/mL odianisidine; 10 U/mL POX; L-amino acid oxidase solution in limiting amounts. The activity measurements were carried out by photometry at 436 nm and 30° C.
# The stereospecificity of the L-amino acid oxidase was measured for several substrates (e.g. alanine, asparagine, glutamine, phenylalanine, methionine, leucine, ornithine, lysine, histidine), in that both the D-form and the L-form, as well as the racemate were used. In this connection, D-amino acids are not transformed in any case. The activities with the racemates were as high, for all the substrates, as for the pure L-amino acids in each instance. […] In the determination of the substrate spectrum, it is therefore also possible to use the D,L-form.
# The measured activity values were indicated as relative values with reference to the activity with 10 mM L-alanine (Table 4). Weak activity was indicated with a + in the table.
# [2] = target: T1, L-amino acid oxidase from Rhodococcus opacus; test: biochemical
# Method: To determine the kinetic constants, the reaction speed of oxidation was studied at different concentrations of amino acid and for different L-amino acids, under the following conditions (tests in microtiter plates):
# 0.2 M TEA-HCl buffer, pH 7.6; 0.2 mg/mL o-dianisidine; 25 U/mL POX; L-amino acid oxidase in limiting amounts; varying concentrations of the different L-amino acids. Activity measurement was conducted by photometry at 450 nm and 30° C.
# The kinetic constants Vmax.
# [3] = target: T1, L-amino acid oxidase from Rhodococcus opacus; test: Transformation of D,L-amino acid with L-amino acid oxidase, HPLC analysis of L- and D-form; type: biochemical; conditions: for concentration of the D-form during the reaction: 7 mM D,L-amino acid
# Method: […] The total volume of the batch was 1 mL. Samples (50 μL) were taken at regular intervals, and analyzed for the content of L- and D-phenylalanine, using HPLC. Directly after being taken, the samples were heated to 95° C. for 3 min, and then the precipitated protein was centrifuged off. 20 μL of the diluted top fraction were put into 180 μL 100 mM sodium borate buffer, pH 10.4, and mixed with 20 μL of a derivativization reagent (260 mM isobuturyl-L-cysteine (IBLC) and 170 mM ophthaldialdehyde (OPA) in 100 mM sodium borate buffer, pH 10.4).
# Separation conditions of HPLC:
# Column: RP-18, 250×4 mm, 5 Am, Kromasil (Phenomenex, Aschaffenburg, Germany)
# Detection: fluorescence, Ex. 340 nm, Em. 440 nm
# Flow agent A: 23 mM sodium acetate buffer; pH 6.5 adjusted with acetic acid
# Flow agent B: acetonitrile:water (10:1.5)
# [4] = 10 mM enantiomer-pure amino acid, pH 7.6, 30° C., 436 nm
# [5] = marked *: poor solubility, 100 μL top fraction of saturated L-amino acid solution per batch
# [6] = marked #: used in racemic form (20 mM D,L-amino acid)
# [7] = 0.2 M TEA-HCl buffer, pH 7.6, 30° C., constant of the amino acid as substrate, read-out: Ki
# T1 sequence (Q8VPD4 46-534): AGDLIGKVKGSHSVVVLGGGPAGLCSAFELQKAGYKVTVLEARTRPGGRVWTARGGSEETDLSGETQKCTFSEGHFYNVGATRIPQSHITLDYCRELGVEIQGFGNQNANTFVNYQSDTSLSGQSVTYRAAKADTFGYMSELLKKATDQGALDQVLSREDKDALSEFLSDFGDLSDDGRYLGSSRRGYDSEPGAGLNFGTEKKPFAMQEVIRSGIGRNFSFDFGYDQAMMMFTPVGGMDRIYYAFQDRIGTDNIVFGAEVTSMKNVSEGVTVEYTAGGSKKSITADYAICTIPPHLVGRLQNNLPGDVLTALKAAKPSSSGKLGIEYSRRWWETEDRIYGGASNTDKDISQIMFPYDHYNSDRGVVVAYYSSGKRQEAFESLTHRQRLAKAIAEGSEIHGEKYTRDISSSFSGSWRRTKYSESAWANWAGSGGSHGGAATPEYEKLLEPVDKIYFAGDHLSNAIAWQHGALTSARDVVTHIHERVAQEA
smiles,measurement,setting,value
N[C@@H](CCc1ccccc1)C(=O)O (racemic) [Homophenylalanine],Rel. activity (%),"[1]; marked *#: racemic form, low concentration (top fraction of saturated solution)",50%
N[C@@H](Cc1c[nH]c2ccccc12)C(=O)O [Tryptophan],Rel. activity (%),[1]; [4],12%
"CC(C)[C@H](N)C(=O)O [Valine, L-valine]",Rel. activity (%),[1]; [4],32%
N[C@@H](Cc1ccc(O)cc1)C(=O)O [Tyrosine],Rel. activity (%),[1]; [5],54%
NCCC(N)C(=O)O (stereo not drawn) [2.4-diaminobutyric acid],Rel. activity (%),[1]; [4],100%
N[C@@H](Cc1ccccc1Cl)C(=O)O [2-chlorophenylalanine],Rel. activity (%),[1]; [4],24%
N[C@@H](Cc1ccc(F)cc1)C(=O)O (racemic) [4-fluorophenylalanine],Rel. activity (%),[1]; [6],25%
N=C(N)NCCC[C@H](N)C(=O)O [Arginine],Ki,[2],5.42 mM
same,Rel. activity (%),[1]; [4],70%
NCCC[C@H](N)C(=O)O [Ornithine],Ki,[2],12.5 mM
same,Rel. activity (%),[1]; [4],117%
"C[C@H](N)C(=O)O [Alanine, L-alanine]",Rel. activity (%),[1]; [4],100%
N[C@H](C(=O)O)C(O)c1ccccc1 (mixture of isomers) [β-Phenyl serine],Rel. activity (%),[1]; [6],8%
"CC(C)C[C@H](N)C(=O)O [Leucine, L-leucine]",Ki,[2]; [7],5.69 mM
same,transformation of the L-form,"[3]; 7 mM D,L-leucine, during the first 20 min",almost completely transformed
same,Rel. activity (%),[1]; [4],68%
N[C@@H](CO)C(=O)O [Serine],Rel. activity (%),[1]; [4],72%
CCCC[C@H](N)C(=O)O (racemic) [Norleucine],Rel. activity (%),[1]; [6],73%
COC[C@H](N)C(=O)O (racemic) [O-methyl serine],Rel. activity (%),[1]; [6],99%
N[C@@H](Cc1cccc2ccccc12)C(=O)O [3-(1-naphthyl)alanine],Rel. activity (%),[1]; [5],109%
CC(=O)NCCCC[C@H](N)C(=O)O [Nε-acetyllysine],Rel. activity (%),[1]; [4],46%
N[C@@H](Cc1c[nH]cn1)C(=O)O [Histidine],Rel. activity (%),[1]; [4],36%
N[C@H](Cc1ccccc1)C(=O)O [D-phenylalanine],concentration of the D-form during the reaction,"[3]; 35 μg/mL enzyme, pH 7.6",remains constant
same,ee value,[3]; after a reaction time of 30 min,≥ 99.2%
same,ee value,[3]; after a reaction time of 180 min,≥ 99.5%
Nc1ccc(C[C@H](N)C(=O)O)cc1 [4-aminophenylalanine],Rel. activity (%),[1]; [4],16%
NC1CCOC1=O (stereo not drawn) [2-amino-4-butyrolactone],Rel. activity (%),[1]; [4],66%
"NCCCC[C@H](N)C(=O)O [Lysine, L-lysine]",Ki,[2],63.7 mM
same,Rel. activity (%),[1]; [4],55%
NC(=O)C[C@H](N)C(=O)O [Asparagine],Rel. activity (%),[1]; [4],97%
"CC(C)(C)CCC(N)C(=O)O (stereo not drawn) [2-amino-5,5-dimethyl hexanic acid]",Rel. activity (%),[1]; [4],44%
NC1CCSC1=O (stereo not drawn) [Homocysteine thiolactone],Rel. activity (%),[1]; [4],23%
N[C@@H](Cc1ccc([N+](=O)[O-])cc1)C(=O)O [4-nitrophenylalanine],Rel. activity (%),[1]; [5],30%
CSCC[C@H](N)C(=O)O [Methionine],Ki,[2],6.84 mM
same,Vmax (U/mg),"[2]; 0.2 M TEA-HCl buffer, pH 7.6, 30° C.",6.43 U/mg
same,Rel. activity (%),[1]; [4],72%
N[C@@H](CSSC[C@H](N)C(=O)O)C(=O)O [Cystine],Rel. activity (%),[1]; [5],104%
N[C@@H](Cc1ccc(Cl)cc1)C(=O)O (racemic) [4-chlorophenylalanine],Rel. activity (%),[1]; [4],9%
NC(=O)CC[C@H](N)C(=O)O [Glutamine],Rel. activity (%),[1]; [4],52%
"N[C@@H](Cc1ccccc1)C(=O)O [Phenylalanine, L-phenylalanine]",Ki,[2]; [7],5.29 mM
same,concentration in the course of the reaction,"[3]; 7 mM D,L-phenylalanine, 35 μg/mL enzyme, pH 7.6, originally 3.5 mM",< 0.01 mM
same,Rel. activity (%),[1]; [4],53%
CC(C)C[C@@H](N)C(=O)O [D-leucine],concentration of the D-form during the reaction,"[3]; 35 μg/mL enzyme, pH 7.6",remains constant
same,ee value,[3]; after a reaction time of 20 min,≥ 99.2%
NCC(N)C(=O)O (stereo not drawn) [2.3-diaminopropionic acid],Rel. activity (%),[1]; [4],71%
CC[C@H](C)[C@H](N)C(=O)O [Isoleucine],Rel. activity (%),[1]; [4],45%
NC(=O)NCCC[C@H](N)C(=O)O [Citrulline],Ki,[2]; [7],20.6 mM
same,Rel. activity (%),[1]; [4],74%
